Experimental findings from ChEMBL document CHEMBL5113546, “Novel SMARCA Degraders for Treating Cancer” (ACS Med Chem Lett, 2022) are described below.

Where only a bound is given, the exact number is not on record here.

SWI/SNF-related matrix-associated actin-dependent regulator of chromatin subfamily A member 2, sequence (P51531 whole entry): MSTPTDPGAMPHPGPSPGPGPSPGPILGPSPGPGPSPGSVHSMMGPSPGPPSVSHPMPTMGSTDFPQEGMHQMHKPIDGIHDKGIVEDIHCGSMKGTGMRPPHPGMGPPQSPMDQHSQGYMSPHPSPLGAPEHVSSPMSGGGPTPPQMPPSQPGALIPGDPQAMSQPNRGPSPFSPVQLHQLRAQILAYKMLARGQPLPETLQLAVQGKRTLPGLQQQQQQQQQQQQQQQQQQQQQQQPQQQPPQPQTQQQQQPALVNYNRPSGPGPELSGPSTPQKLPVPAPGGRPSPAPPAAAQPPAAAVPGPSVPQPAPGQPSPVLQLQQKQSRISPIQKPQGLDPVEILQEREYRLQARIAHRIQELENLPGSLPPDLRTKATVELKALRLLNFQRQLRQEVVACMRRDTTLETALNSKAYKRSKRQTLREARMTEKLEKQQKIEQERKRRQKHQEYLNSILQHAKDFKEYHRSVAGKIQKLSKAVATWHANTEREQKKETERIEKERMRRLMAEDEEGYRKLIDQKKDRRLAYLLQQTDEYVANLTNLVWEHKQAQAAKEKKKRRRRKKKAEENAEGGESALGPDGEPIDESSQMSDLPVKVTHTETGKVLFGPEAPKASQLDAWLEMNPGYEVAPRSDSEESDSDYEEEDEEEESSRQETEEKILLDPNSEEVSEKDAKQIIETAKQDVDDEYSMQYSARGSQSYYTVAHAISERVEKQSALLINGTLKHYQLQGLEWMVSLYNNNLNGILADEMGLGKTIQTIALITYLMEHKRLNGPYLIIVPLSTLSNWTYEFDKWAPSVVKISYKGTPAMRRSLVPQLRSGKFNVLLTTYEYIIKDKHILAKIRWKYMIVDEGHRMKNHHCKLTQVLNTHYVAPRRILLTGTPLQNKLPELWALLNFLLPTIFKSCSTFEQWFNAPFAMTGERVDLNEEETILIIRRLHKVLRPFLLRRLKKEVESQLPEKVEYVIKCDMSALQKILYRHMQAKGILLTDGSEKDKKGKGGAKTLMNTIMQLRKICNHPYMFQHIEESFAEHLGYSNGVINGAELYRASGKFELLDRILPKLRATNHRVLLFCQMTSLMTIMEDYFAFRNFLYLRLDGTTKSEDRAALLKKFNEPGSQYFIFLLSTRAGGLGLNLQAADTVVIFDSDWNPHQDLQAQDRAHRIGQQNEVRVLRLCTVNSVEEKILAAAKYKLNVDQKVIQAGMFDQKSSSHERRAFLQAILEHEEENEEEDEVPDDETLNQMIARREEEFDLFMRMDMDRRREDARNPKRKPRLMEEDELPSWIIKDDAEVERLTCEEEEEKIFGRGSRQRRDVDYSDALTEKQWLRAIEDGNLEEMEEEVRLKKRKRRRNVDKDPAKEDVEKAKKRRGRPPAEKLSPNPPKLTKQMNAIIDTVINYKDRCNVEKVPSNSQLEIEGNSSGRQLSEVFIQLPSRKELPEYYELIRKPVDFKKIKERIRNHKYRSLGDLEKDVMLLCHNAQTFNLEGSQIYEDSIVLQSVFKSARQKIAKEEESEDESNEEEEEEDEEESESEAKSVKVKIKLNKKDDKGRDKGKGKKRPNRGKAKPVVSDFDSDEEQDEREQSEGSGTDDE

The assay addresses SWI/SNF-related matrix-associated actin-dependent regulator of chromatin subfamily A member 2 (Homo sapiens, UniProt P51531). The assay is described as follows: Induction of SMARCA2 degradation in human A549 cells measured after 24 hrs by MSD assay. Type of assay: cell-based.
On to `Cc1ncsc1-c1ccc(CNC(=O)[C@@H]2C[C@@H](O)CN2C(=O)[C@@H](NC(=O)[C@H]2CC3(C2)C[C@H](N2CCN(c4cnc(N5C6CCC5CN(c5cc(-c7ccccc7O)nnc5N)C6)nc4)CC2)C3)C(C)(C)C)cc1` (stereo partly specified), for which the DC50 is < 100 nM. Under `Cc1ncsc1-c1ccc(CNC(=O)[C@@H]2C[C@@H](O)CN2C(=O)C(c2cc(OCCN3CCC(c4cnc(N5C6CCC5CN(c5cc(-c7ccccc7O)nnc5N)C6)nc4)CC3)no2)C(C)C)cc1` (stereo partly specified) stands < 100 nM; under `Cc1ncsc1-c1ccc(CNC(=O)[C@@H]2C[C@@H](O)CN2C(=O)[C@@H](NC(=O)[C@H]2CC3(CC[C@H](N4CCC(c5cnc(N6C7CCC6CN(c6cc(-c8ccccc8O)nnc6N)C7)nc5)CC4)CC3)C2)C(C)(C)C)cc1` (stereo partly specified), < 100 nM.

As to `Cc1ncsc1-c1ccc([C@H](C)NC(=O)[C@@H]2C[C@@H](O)CN2C(=O)[C@@H](NC(=O)[C@H]2CC3(C2)C[C@H](N2CCC(c4cnc(N5C6CCC5CN(c5cc(-c7ccccc7O)nnc5N)C6)nc4)CC2)C3)C(C)(C)C)cc1` (stereo partly specified), the half-maximal degradation concentration (DC50) was < 100 nM.

Consider `Cc1ncsc1-c1ccc(C2(NC(=O)[C@@H]3C[C@@H](O)CN3C(=O)[C@@H](NC(=O)[C@H]3CC4(C3)C[C@H](N3CCC(c5cnc(N6C7CCC6CN(c6cc(-c8ccccc8O)nnc6N)C7)nc5)CC3)C4)C(C)(C)C)CC2)cc1` (stereo partly specified), for which the half-maximal degradation concentration (DC50) is < 100 nM.

Consider `Cc1ncsc1-c1ccc(CNC(=O)[C@@H]2C[C@@H](O)CN2C(=O)C(c2cc(OCCCCN3CCC(c4cnc(N5C6CCC5CN(c5cc(-c7ccccc7O)nnc5N)C6)nc4)CC3)no2)C(C)C)cc1` (stereo partly specified), for which the DC50 is < 100 nM.

As a reminder, the DC50 is the concentration giving 50% degradation. The low end stands for a more potent degrader, the high end for a less potent degrader.
